Reference: patent US20240116985A1, “STAPLED PEPTIDES AND METHODS THEREOF” (priority 2020, published 2024)
Converted amounts (≈) assume the structure as drawn. Read-outs that look alike come from different tables or passages of the source.

Key:
[1] = Solubility in PBS; assay type: physicochemical
Procedure, shortened: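 Solubility is derived from HPLC peak areas: the ratio of the PBS supernatant peak to a 50 μM DMSO peptide peak, times 50 uM.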

[2] = CHI Log D procedure; assay type: physicochemical; conditions: for CHI Log D: pH 7.4; for chromatographic logD: pH 7.4, CHI Log D
[3] = target: T1, full-length beta-Catenin (Uniprot ID P35222) (Homo sapiens, UniProt P35222); test: Fluorescence polarization IC50 (beta-catenin / 5FAM-TCF4 10-53 competition); assay type: binding; conditions: fluorescence polarization; read-out: beta-Catenin FP IC50
T1 construct: 10 nM full-length beta-Catenin (Uniprot ID P35222)
T1 sequence (P35222 1-781): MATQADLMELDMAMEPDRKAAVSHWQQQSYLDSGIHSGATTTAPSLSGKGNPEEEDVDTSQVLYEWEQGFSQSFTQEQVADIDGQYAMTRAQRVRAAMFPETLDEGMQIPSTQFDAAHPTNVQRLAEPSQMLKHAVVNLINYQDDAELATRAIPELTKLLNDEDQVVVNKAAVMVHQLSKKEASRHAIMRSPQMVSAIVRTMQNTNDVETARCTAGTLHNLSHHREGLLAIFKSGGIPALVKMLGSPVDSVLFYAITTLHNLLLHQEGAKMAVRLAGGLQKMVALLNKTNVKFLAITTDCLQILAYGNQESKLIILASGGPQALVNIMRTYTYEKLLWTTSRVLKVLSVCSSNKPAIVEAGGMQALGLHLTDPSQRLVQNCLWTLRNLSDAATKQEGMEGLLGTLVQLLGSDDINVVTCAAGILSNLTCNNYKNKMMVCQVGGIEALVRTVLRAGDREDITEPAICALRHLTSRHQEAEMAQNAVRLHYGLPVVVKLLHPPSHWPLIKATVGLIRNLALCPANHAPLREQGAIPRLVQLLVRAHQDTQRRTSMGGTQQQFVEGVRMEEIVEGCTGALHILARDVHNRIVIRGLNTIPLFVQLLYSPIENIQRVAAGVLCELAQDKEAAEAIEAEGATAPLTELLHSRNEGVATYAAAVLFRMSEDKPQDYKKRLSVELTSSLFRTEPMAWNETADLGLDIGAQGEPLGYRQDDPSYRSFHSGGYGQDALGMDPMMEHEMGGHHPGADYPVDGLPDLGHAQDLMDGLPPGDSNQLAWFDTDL

[4] = target: T2, beta-catenin/TCF4 engagement (Homo sapiens, UniProt P35222); test: Nano-BRET target engagement assay (B-cat-Halo & TCF4-Luc in HEK293 cells); assay type: cell-based; conditions: absolute IC50; read-out: NanoBRET Abs IC50
T2 construct: expressed in transfected cells; host or cells: HEK293
T2 sequence (P35222 1-781): T1 sequence (P35222 1-781)

| Structure (SMILES) | CHI Log D [2] | Solubility [1] | further results |
| --- | --- | --- | --- |
| CC(=O)N1CCC[C@]12CC=CCCCC1(CCCC=CCCCCCC[C@@](C)(C(=O)N[C@@H](Cc3ccccc3)C(=O)N[C@@H](Cc3c[nH]c4ccccc34)C(=O)N[C@@H](CCC(N)=O)C(N)=O)NC(=O)[C@H](C(C)C)NC(=O)C(Cc3cncn3C)NC(=O)[C@H](C)NC(=O)[C@H](C)NC(=O)[C@H](CC(=O)O)NC(=O)[C@H](CC(=O)O)NC1=O)NC(=O)[C@H](C)NC(=O)[C@H](CC(=O)O)NC2=O (single isomer, unassigned) [I-332, Ac-PL3-Asp-Ala-B5-Asp-Asp-Ala-Ala-3meH-Val-S8-Phe-Trp-Gln-NH2] | 2.038 | – | Solubility ([1]; 15 min): 40 µM (≈ 71.4 µg/mL) |
| CC(=O)N[C@@H](Cc1ccccc1)C(=O)N[C@@H](CC(=O)O)C(=O)N[C@@H](C)C(=O)N[C@]1(C)CCCCCCC=CCOC(=O)N2CC[C@@](C(=O)N[C@@H](Cc3ccccc3)C(=O)N[C@@H](Cc3c[nH]c4ccccc34)C(=O)N[C@@H](CCC(N)=O)C(N)=O)(C2)NC(=O)[C@H](C(C)C)NC(=O)[C@H](Cc2ccccc2)NC(=O)[C@H](C)NC(=O)[C@H](C)NC(=O)[C@H](Cc2ccc3ccccc3c2)NC(=O)[C@H](CC(=O)O)NC1=O [I-116, Ac-Phe-Asp-Ala-R8-Asp-2NapA-Ala-Ala-Phe-Val-PyrS-Phe-Trp-Gln-NH2] | 2.134 | 11 µM (≈ 20.9 µg/mL) | – |
| CC(=O)N1CCC[C@]12CC=CCCCC1(CCCC=CCCCCCC[C@@](C)(C(=O)N[C@@H](Cc3ccccc3)C(=O)N[C@@H](Cc3c[nH]c4ccccc34)C(=O)N[C@@H](CCC(N)=O)C(N)=O)NC(=O)[C@H](C(C)C)NC(=O)[C@H](Cc3ccccc3)NC(=O)[C@H](C)NC(=O)[C@H](C)NC(=O)[C@H](Cc3cccc(F)c3)NC(=O)[C@H](CC(=O)O)NC1=O)NC(=O)[C@H](C)NC(=O)[C@H](CC(=O)O)NC2=O (stereo partly drawn) [I-257, Ac-PL3-Asp-Ala-B5-Asp-3FF-Ala-Ala-Phe-Val-S8-Phe-Trp-Gln-NH2] | – | 10 µM (≈ 18.3 µg/mL) | chromatographic logD [2]: 2.91 |
| CC(=O)N1CCC[C@]12CC=CCCCC1(CCCC=CCCCCCC[C@@](C)(C(=O)N[C@@H](Cc3cccc4ccccc34)C(=O)N[C@@H](Cc3c[nH]c4ccccc34)C(=O)N[C@@H](CCC(N)=O)C(N)=O)NC(=O)[C@H](C(C)C)NC(=O)[C@H](Cc3ccccc3)NC(=O)[C@H](C)NC(=O)[C@H](C)NC(=O)[C@H](CC(=O)O)NC(=O)[C@H](CC(=O)O)NC1=O)NC(=O)[C@H](C)NC(=O)[C@H](CC(=O)O)NC2=O (stereo partly drawn) [I-275, Ac-PL3-Asp-Ala-B5-Asp-Asp-Ala-Ala-Phe-Val-S8-1NapA-Trp-Gln-NH2] | 2.191 | 44 µM (≈ 80.6 µg/mL) | – |
| CC(=O)N1CCC[C@]12CC=CCCCC1(CCCC=CCCCCCC[C@@](C)(C(=O)N[C@@H](CC(N)=O)C(=O)N[C@@H](Cc3c[nH]c4ccccc34)C(=O)N[C@@H](CCC(N)=O)C(N)=O)NC(=O)[C@H](C(C)C)NC(=O)[C@H](Cc3ccccc3)NC(=O)[C@H](C)NC(=O)[C@H](C)NC(=O)[C@H](CC(=O)O)NC(=O)[C@H](CC(=O)O)NC1=O)NC(=O)[C@H](C)NC(=O)[C@H](CC(=O)O)NC2=O (stereo partly drawn) [I-284, Ac-PL3-Asp-Ala-B5-Asp-Asp-Ala-Ala-Phe-Val-S8-Asn-Trp-Gln-NH2] | – | – | Solubility ([1]; Solubility (uM)): 40 µM (≈ 69.9 µg/mL); chromatographic logD [2]: 1.52 |
| CC(=O)N1CCC[C@]12CC=CCCCC1(CCCC=CCCCCCC[C@@](C)(C(=O)N[C@@H](Cc3ccccc3)C(=O)N[C@@H](Cc3c[nH]c4ccccc34)C(=O)N[C@@H](CCC(N)=O)C(N)=O)NC(=O)[C@H](C(C)C)NC(=O)[C@H](Cc3cn(C)cn3)NC(=O)[C@H](C)NC(=O)[C@H](C)NC(=O)[C@H](CC(=O)O)NC(=O)[C@H](CC(=O)O)NC1=O)NC(=O)[C@H](C)NC(=O)[C@H](CC(=O)O)NC2=O (stereo partly drawn) [I-329, Ac-PL3-Asp-Ala-B5-Asp-Asp-Ala-Ala-1meH-Val-S8-Phe-Trp-Gln-NH2] | 2.01 | 41 µM (≈ 73.2 µg/mL) | – |
| CC(=O)N1CCC[C@]12CC=CCCCC1(CCCC=CCCCCCC[C@@](C)(C(=O)N[C@@H](Cc3ccccc3)C(=O)N[C@@H](Cc3c[nH]c4ccccc34)C(=O)N[C@@H](CCC(N)=O)C(N)=O)NC(=O)[C@H](C(C)C)NC(=O)[C@H](Cc3cn(C)cn3)NC(=O)[C@H](C)NC(=O)[C@H](C)NC(=O)[C@H](CC(=O)O)NC(=O)[C@H](CC(=O)O)NC1=O)NC(=O)[C@H](C)NC(=O)[C@H](CC(=O)O)NC2=O (stereo partly drawn) [I-330, Ac-PL3-Asp-Ala-B5-Asp-Asp-Ala-Ala-1meH-Val-S8-Phe-Trp-Gln-NH2] | 2.047 | 21 µM (≈ 37.5 µg/mL) | – |
| CC(=O)N1CCC[C@]12CC=CCCCC1(CCCC=CCCCCCC[C@@](C)(C(=O)N[C@@H](Cc3ccc(C(N)=O)cc3)C(=O)N[C@@H](Cc3csc4ccccc34)C(=O)N[C@@H](CCC(N)=O)C(N)=O)NC(=O)[C@H](C(C)C)NC(=O)[C@H](Cc3ccccc3)NC(=O)[C@H](C)NC(=O)[C@H](C)NC(=O)[C@H](CC(=O)O)NC(=O)[C@H](CC(=O)O)NC1=O)NC(=O)[C@H](C)NC(=O)[C@H](CC(=O)O)NC2=O (stereo partly drawn) [I-337, Ac-PL3-Asp-Ala-B5-Asp-Asp-Ala-Ala-Phe-Val-S8-4CBMF-BztA-Gln-NH2] | 1.579 | 48 µM (≈ 88.4 µg/mL) | – |
| CC(=O)N1CCC[C@]12CC=CCCCC1(CCCC=CCCCCCC[C@@](C)(C(=O)N[C@@H](Cc3ccc(C(N)=O)cc3)C(=O)N[C@@H](Cc3csc4ccccc34)C(=O)N[C@@H](CCC(N)=O)C(N)=O)NC(=O)[C@H](C(C)C)NC(=O)[C@H](Cc3ccccc3)NC(=O)[C@H](C)NC(=O)[C@H](C)NC(=O)[C@H](CC(=O)O)NC(=O)[C@H](CC(=O)O)NC1=O)NC(=O)[C@H](C)NC(=O)[C@H](CC(=O)O)NC2=O (stereo partly drawn) [I-338, Ac-PL3-Asp-Ala-B5-Asp-Asp-Ala-Ala-Phe-Val-S8-4CBMF-BztA-Gln-NH2] | 1.586 | 47 µM (≈ 86.5 µg/mL) | – |
| CC(=O)N1CCC[C@]12CC=CCCCC1(CCCC=CCCCCCC[C@@](C)(C(=O)N[C@@H](Cc3ccc(C(=O)O)cc3)C(=O)N[C@@H](Cc3csc4ccccc34)C(=O)N[C@@H](CCC(N)=O)C(N)=O)NC(=O)[C@H](C(C)C)NC(=O)[C@H](Cc3ccccc3)NC(=O)[C@H](C)NC(=O)[C@H](C)NC(=O)[C@H](CC(=O)O)NC(=O)[C@H](CC(=O)O)NC1=O)NC(=O)[C@H](C)NC(=O)[C@H](CC(=O)O)NC2=O (stereo partly drawn) [I-339, Ac-PL3-Asp-Ala-B5-Asp-Asp-Ala-Ala-Phe-Val-S8-4COOHF-BztA-Gln-NH2] | 1.328 | 50 µM (≈ 92.1 µg/mL) | – |
| CC(=O)N1CCC[C@]12CC=CCCCC1(CCCC=CCCCCCC[C@@](C)(C(=O)N[C@@H](Cc3ccc(C(=O)O)cc3)C(=O)N[C@@H](Cc3csc4ccccc34)C(=O)N[C@@H](CCC(N)=O)C(N)=O)NC(=O)[C@H](C(C)C)NC(=O)[C@H](Cc3ccccc3)NC(=O)[C@H](C)NC(=O)[C@H](C)NC(=O)[C@H](CC(=O)O)NC(=O)[C@H](CC(=O)O)NC1=O)NC(=O)[C@H](C)NC(=O)[C@H](CC(=O)O)NC2=O (stereo partly drawn) [I-340, Ac-PL3-Asp-Ala-B5-Asp-Asp-Ala-Ala-Phe-Val-S8-4COOHF-BztA-Gln-NH2] | 1.341 | 49 µM (≈ 90.3 µg/mL) | – |
| CC(=O)N1CCC[C@]12CC=CCCCC1(CCCC=CCCCCCC[C@@](C)(C(=O)N[C@@H](Cc3ccccc3)C(=O)N[C@@H](Cc3c[nH]c4ccccc34)C(=O)N[C@@H](CCC(N)=O)C(N)=O)NC(=O)[C@H](C(C)C)NC(=O)[C@H](Cc3ccccc3)NC(=O)[C@H](C)NC(=O)[C@H](C)NC(=O)[C@H](CC(=O)O)NC(=O)[C@H](CC(=O)O)NC1=O)NC(=O)[C@H](C)NC(=O)[C@H](C)NC2=O (stereo partly drawn) [I-348, Ac-PL3-Ala-Ala-B5-Asp-Asp-Ala-Ala-Phe-Val-S8-Phe-Trp-Gln-NH2] | 2.397 | 46 µM (≈ 79.9 µg/mL) | – |
| CC(=O)N1CCC[C@]12CC=CCCCC1(CCCC=CCCCOC(=O)N3CC[C@@](C(=O)N[C@@H](Cc4ccsc4)C(=O)N[C@@H](Cc4csc5ccccc45)C(=O)N[C@H](CO)[C@@H](C)O)(C3)NC(=O)[C@H](Cc3ccc(C(F)(F)F)cc3)NC(=O)[C@H](Cc3ccccc3)NC(=O)[C@H](C)NC(=O)[C@H](C)NC(=O)[C@H](CC(=O)O)NC(=O)[C@H](CC(=O)O)NC1=O)NC(=O)[C@H](CC(C)(C)C)NC(=O)[C@H](CC(=O)O)NC2=O (stereo partly drawn) [I-1372, Ac-PL3-Asp-Npg-B5-Asp-Asp-Ala-Ala-Phe-4F3MeF-PyrS2-3Thi-BztA-Thro1] | – | 10 µM (≈ 19.8 µg/mL) | IC50 [3]: 0.029 µM; IC50 [4]: 10.2 µM |
